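Compound exposure: 48 hours, 5 concentrations, 96-well plates. Abbreviation: GI50, concentration required for 50% inhibition of growth.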 Active and inactive are the calls of the source. No stated cut-off is given here; in the data, active = GI50 up to about 1.1 µM and inactive = higher. Positions of bridges follow the written chain, without caps; N, C: chain ends. Non-standard residues stand in square brackets, D forms with d. Residues, ends and D or L forms follow the SMILES beside them. *: point of attachment. PhAc = O=C(Cc1ccccc1)*
What was measured:
Assay in all cases: NCI-60 cell line screen, 48 h
NCI-H460 = system: NCI-H460
SW-620 = system: SW-620
HOP-62 = system: HOP-62
MDA-MB-435 = system: MDA-MB-435
MDA-MB-231 = system: MDA-MB-231
OVCAR-5 = system: OVCAR-5
NCI-H522 = system: NCI-H522
OVCAR-4 = system: OVCAR-4
SF-295 = system: SF-295
RPMI-8226 = system: RPMI-8226
COLO 205 = system: COLO 205
Malme-3M = system: Malme-3M
KM12 = system: KM12
SK-MEL-28 = system: SK-MEL-28
UACC-62 = system: UACC-62
EKVX = system: EKVX
CCRF-CEM = system: CCRF-CEM
786-0 = system: 786-0
DU-145 = system: DU-145
RXF 393 = system: RXF 393

Row | Structure (SMILES) | GI50 (NCI-H460) | GI50 (SW-620) | GI50 (HOP-62) | GI50 (MDA-MB-435) | GI50 (MDA-MB-231) | GI50 (OVCAR-5) | GI50 (NCI-H522) | GI50 (OVCAR-4) | GI50 (SF-295) | GI50 (RPMI-8226) | GI50 (COLO 205) | GI50 (Malme-3M) | GI50 (KM12) | GI50 (SK-MEL-28) | GI50 (UACC-62) | GI50 (EKVX) | GI50 (CCRF-CEM) | GI50 (786-0) | GI50 (DU-145) | GI50 (RXF 393)
1 | COC(=O)[C@H](CCSC)NC(=O)N[C@H](C)c1ccccc1 | > 100 µM (inactive) | > 100 µM (inactive) | > 100 µM (inactive) | > 100 µM (inactive) | > 100 µM (inactive) | > 100 µM (inactive) | 26.1 µM (inactive) | > 100 µM (inactive) | > 100 µM (inactive) | > 100 µM (inactive) | > 100 µM (inactive) | 24.9 µM (inactive) | > 100 µM (inactive) | > 100 µM (inactive) | > 100 µM (inactive) | > 100 µM (inactive) | > 100 µM (inactive) | > 100 µM (inactive) | > 100 µM (inactive) | –
2 | Cc1ccc(S(=O)(=O)n2cc(-c3cnc(N)c(Br)n3)c3ccccc32)cc1 | 3.18 µM (inactive) | 1.04 µM (active) | 6.73 µM (inactive) | 0.238 µM (active) | 2.54 µM (inactive) | 4.39 µM (inactive) | – | 5.18 µM (inactive) | 1.95 µM (inactive) | 1.78 µM (inactive) | 2.46 µM (inactive) | – | 1.36 µM (inactive) | 6.27 µM (inactive) | 3.7 µM (inactive) | 3.48 µM (inactive) | – | 2.33 µM (inactive) | 1.31 µM (inactive) | 0.484 µM (active)
3 | Oc1ccc2c(c1)-c1c(c3ccccc3n1CCN1CCOCC1)CC2 | > 100 µM (inactive) | > 10 µM (inactive) | 47 µM (inactive) | 30.9 µM (inactive) | > 100 µM (inactive) | 23.9 µM (inactive) | – | – | 48.3 µM (inactive) | > 100 µM (inactive) | 41.7 µM (inactive) | 31.3 µM (inactive) | 20 µM (inactive) | – | 27.5 µM (inactive) | 53.2 µM (inactive) | > 100 µM (inactive) | 33.7 µM (inactive) | 46 µM (inactive) | 66.7 µM (inactive)
4 | COc1cc2ccnc3c2c(c1OC)N(C)C=C3 | 14.6 µM (inactive) | 29.6 µM (inactive) | 28.3 µM (inactive) | 31.5 µM (inactive) | 29.1 µM (inactive) | 33 µM (inactive) | – | 24.5 µM (inactive) | 20.2 µM (inactive) | 24.4 µM (inactive) | 20.5 µM (inactive) | – | 25.9 µM (inactive) | 32.7 µM (inactive) | 26.4 µM (inactive) | 23.2 µM (inactive) | – | 17.2 µM (inactive) | 34.5 µM (inactive) | 25.1 µM (inactive)
5 | CC1=C(C)Cc2c(O)ccc(O)c2C1 | 43.7 µM (inactive) | 18.3 µM (inactive) | 21.5 µM (inactive) | 16.8 µM (inactive) | 18 µM (inactive) | 20.7 µM (inactive) | – | – | 47.4 µM (inactive) | 6 µM (inactive) | 20.4 µM (inactive) | 17.5 µM (inactive) | 31.3 µM (inactive) | 12 µM (inactive) | 16.5 µM (inactive) | 14.5 µM (inactive) | 3.12 µM (inactive) | – | 20.1 µM (inactive) | 15.9 µM (inactive)
6 | N#Cc1c(-c2ccc(F)cc2)c(-c2ccc(F)cc2)nn(CCO)c1=O | 0.237 µM (active) | – | 0.493 µM (active) | 0.0641 µM (active) | 0.661 µM (active) | 1.82 µM (inactive) | – | 1.32 µM (inactive) | 0.224 µM (active) | 0.213 µM (active) | 0.24 µM (active) | 0.743 µM (active) | 0.126 µM (active) | 17.8 µM (inactive) | 0.14 µM (active) | 0.47 µM (active) | 0.564 µM (active) | 0.421 µM (active) | 0.743 µM (active) | 0.378 µM (active)
7 | O=C(Cc1ccccc1)N[C@@H]1COC(=O)[C@@H]2CCCN2C(=O)[C@@H]2CCCN2C1=O (PhAc-[dS]-Pro-Pro; ester 1-C) | > 100 µM (inactive) | > 100 µM (inactive) | > 100 µM (inactive) | > 100 µM (inactive) | > 100 µM (inactive) | > 100 µM (inactive) | – | > 100 µM (inactive) | > 100 µM (inactive) | – | > 100 µM (inactive) | > 100 µM (inactive) | > 100 µM (inactive) | > 100 µM (inactive) | > 100 µM (inactive) | > 100 µM (inactive) | > 100 µM (inactive) | > 100 µM (inactive) | > 100 µM (inactive) | > 100 µM (inactive)
8 | C#CC(C)(C)Oc1cc(OC)c2c(=O)c3ccccc3n(C)c2c1 | 13.5 µM (inactive) | 31.9 µM (inactive) | 27 µM (inactive) | 11 µM (inactive) | 15.2 µM (inactive) | 31.8 µM (inactive) | – | 7.8 µM (inactive) | 19.5 µM (inactive) | 4.4 µM (inactive) | 14.8 µM (inactive) | – | 10.9 µM (inactive) | 16.2 µM (inactive) | 7.59 µM (inactive) | 20.9 µM (inactive) | 5.27 µM (inactive) | 7.46 µM (inactive) | 12.4 µM (inactive) | 25.2 µM (inactive)
9 | CCOC(=O)N(CC)c1c(C(F)(F)F)cc(-c2ccccc2)[nH]c1=O | 45.1 µM (inactive) | 54.7 µM (inactive) | 73.5 µM (inactive) | 22.8 µM (inactive) | > 100 µM (inactive) | > 100 µM (inactive) | – | 30.8 µM (inactive) | 33.4 µM (inactive) | 14.5 µM (inactive) | 32.4 µM (inactive) | – | 36.1 µM (inactive) | 70.6 µM (inactive) | 66.2 µM (inactive) | 33.5 µM (inactive) | 16.4 µM (inactive) | 64.3 µM (inactive) | 72.3 µM (inactive) | 28.2 µM (inactive)
10 | O=c1oc2ccccc2c(O)c1C1c2c(c3ccccc3oc2=O)Oc2c1c(=O)oc1ccccc21 | 17.1 µM (inactive) | 38.2 µM (inactive) | 64.4 µM (inactive) | 28.7 µM (inactive) | 32.4 µM (inactive) | – | 39 µM (inactive) | 32.9 µM (inactive) | – | 31.7 µM (inactive) | 42.3 µM (inactive) | > 100 µM (inactive) | 26.4 µM (inactive) | 30.8 µM (inactive) | 21.4 µM (inactive) | 45 µM (inactive) | 36.5 µM (inactive) | 43.1 µM (inactive) | 53.5 µM (inactive) | –
11 | COc1ccc(C2SCC(=O)N2c2ccc(-c3ccc(-n4c(-c5ccccc5)nc5ccccc5c4=O)cc3)cc2)cc1OC (stereo not given) | 32.8 µM (inactive) | 73.5 µM (inactive) | 18 µM (inactive) | 33.3 µM (inactive) | 25.8 µM (inactive) | – | – | > 100 µM (inactive) | 16.8 µM (inactive) | 31.7 µM (inactive) | 18.4 µM (inactive) | 81.8 µM (inactive) | 7.85 µM (inactive) | 57 µM (inactive) | 29.2 µM (inactive) | 81.8 µM (inactive) | 20 µM (inactive) | 44.4 µM (inactive) | 98.2 µM (inactive) | > 100 µM (inactive)
12 | COc1cc2c(c(OC)c1OC)-c1ccc(SC)cc1C(O)CC2 (stereo not given) | < 0.01 µM (active) | < 0.01 µM (active) | – | < 0.01 µM (active) | 0.394 µM (active) | 14.6 µM (inactive) | < 0.01 µM (active) | 1.94 µM (inactive) | < 0.01 µM (active) | < 0.01 µM (active) | < 0.01 µM (active) | 0.0132 µM (active) | < 0.01 µM (active) | 55.6 µM (inactive) | < 0.01 µM (active) | 2.54 µM (inactive) | < 0.01 µM (active) | < 0.01 µM (active) | < 0.01 µM (active) | –
13 | COc1cc(C2C3C=CC=C4CC=CC(=C43)C3CCC(=O)N32)cc(OC)c1OC (stereo not given) | > 100 µM (inactive) | > 100 µM (inactive) | > 100 µM (inactive) | > 100 µM (inactive) | > 100 µM (inactive) | > 100 µM (inactive) | > 100 µM (inactive) | – | > 100 µM (inactive) | > 100 µM (inactive) | – | – | > 100 µM (inactive) | > 100 µM (inactive) | 30.8 µM (inactive) | > 100 µM (inactive) | – | > 100 µM (inactive) | > 100 µM (inactive) | –
14 | O=C(O)c1cc(N(Cc2ccccc2O)Cc2cc(O)ccc2O)ccc1O [LAVENDUSTIN A] | > 100 µM (inactive) | > 100 µM (inactive) | > 100 µM (inactive) | > 100 µM (inactive) | > 100 µM (inactive) | > 100 µM (inactive) | – | > 100 µM (inactive) | > 100 µM (inactive) | > 100 µM (inactive) | > 100 µM (inactive) | > 100 µM (inactive) | > 100 µM (inactive) | > 100 µM (inactive) | > 100 µM (inactive) | > 100 µM (inactive) | 45.4 µM (inactive) | > 100 µM (inactive) | > 100 µM (inactive) | > 100 µM (inactive)
15 | O=C(CSc1n[nH]c(=O)[nH]c1=O)NNC(=O)c1cccc2nc3ccccc3nc12 | 32.6 µM (inactive) | > 100 µM (inactive) | > 100 µM (inactive) | 35.4 µM (inactive) | > 100 µM (inactive) | > 100 µM (inactive) | – | > 100 µM (inactive) | 59.3 µM (inactive) | > 100 µM (inactive) | 31.8 µM (inactive) | 26.5 µM (inactive) | 79.3 µM (inactive) | > 100 µM (inactive) | > 100 µM (inactive) | > 100 µM (inactive) | > 100 µM (inactive) | > 100 µM (inactive) | 36.5 µM (inactive) | > 100 µM (inactive)
